In article PMC5603603, “Linoleic and palmitoleic acid block streptokinase-mediated plasminogen activation and reduce severity of invasive group A streptococcal infection” (Scientific Reports, 2017):
Like-named read-outs stand apart in the source and are kept apart here.

How the values were obtained:
[1] = biological target: cluster 2b type streptokinase (Streptococcus pyogenes, UniProt P10520); set-up: species or system group A streptococcal strain A314; settings: cell-based, cluster 2b; for effect on plasminogen activation: concentrations up to 100 µg/ml (around 320–437 µM)
Procedure: (§1) Then inhibitory compounds (LA, PA, oleic, myristic, stearic, palmitic, arachidonic, arachidic, linolenic acid, TXA or EACA) were added. Stocks of LA and PA were prepared in methanol and then diluted in PBS. Stocks of arachidic, oleic, arachidonic, myristic, palmitic, stearic and linolenic acid were prepared in 60% DMSO/PBS and then diluted in PBS. The untreated control received the same amount of PBS as in case of TXA and EACA as control or the same amount of methanol diluted in PBS as in case of LA and PA, respectively, or the same amount of DMSO diluted in PBS as in case of the other commercially available fatty acids. […] The assay was incubated at 37 °C and measured at the beginning of the reaction and then every hour at 405 nm after 3 sec of shaking on a Tecan Sunrise ELISAReader using Magellan software. Each experiment was repeated three times. IC50 values were calculated using Microsoft® Excel software.

[2] = biological target: T1, cluster 2a type streptokinase (Streptococcus pyogenes, UniProt A0A288R465); set-up: species or system group A streptococcal strain A614; settings: cell-based, cluster 2a
Procedure: The pellet from a mid-log phase culture of the strain A614 (cluster 2a type) or A314 (cluster 2b type) was washed twice with PBS and bacteria were adjusted to an OD600 of 1.0 in HEPES-buffer (10 mM HEPES, 150 mM NaCl, 0.01% Tween 20, pH 7.4). 90 µl of bacterial cells, plasminogen (final concentration 6.7 µg/ml per well) and fibrinogen (final concentration 1 µM per well) were pre-mixed. Then inhibitory compounds (LA, PA, oleic, myristic, stearic, palmitic, arachidonic, arachidic, linolenic acid, TXA or EACA) were added. Stocks of LA and PA were prepared in methanol and then diluted in PBS. Stocks of arachidic, oleic, arachidonic, myristic, palmitic, stearic and linolenic acid were prepared in 60% DMSO/PBS and then diluted in PBS. The untreated control received the same amount of PBS as in case of TXA and EACA as control or the same amount of methanol diluted in PBS as in case of LA and PA, respectively, or the same amount of DMSO diluted in PBS as in case of the other commercially available fatty acids. Then 50 µl of the respective supernatant (supernatant from the strain A614 if cells from A614 were used, supernatant from the strain A314 were used in case of cells from the GAS strain A314) and 3.75 µl 10 mM S-2251 (Chromogenix) were added. The assay was incubated at 37 °C and measured at the beginning of the reaction and then every hour at 405 nm after 3 sec of shaking on a Tecan Sunrise ELISAReader using Magellan software. Each experiment was repeated three times. IC50 values were calculated using Microsoft® Excel software.

[3] = biological target: T1, cluster 2a type streptokinase; experiment: biochemical; assay type: biochemical, group A streptococcal strain A614; settings: for IC50: supernatant-based, cluster 2a
[4] = biological target: cluster 1 type streptokinase (Streptococcus pyogenes, UniProt P10520); assay type: biochemical, group A streptococcal strain A328; settings: supernatant-based, cluster 1; for effect on plasminogen activation: concentrations up to 100 µg/ml (around 320–437 µM)
Chain of cluster 1 type streptokinase (P00747 20-810): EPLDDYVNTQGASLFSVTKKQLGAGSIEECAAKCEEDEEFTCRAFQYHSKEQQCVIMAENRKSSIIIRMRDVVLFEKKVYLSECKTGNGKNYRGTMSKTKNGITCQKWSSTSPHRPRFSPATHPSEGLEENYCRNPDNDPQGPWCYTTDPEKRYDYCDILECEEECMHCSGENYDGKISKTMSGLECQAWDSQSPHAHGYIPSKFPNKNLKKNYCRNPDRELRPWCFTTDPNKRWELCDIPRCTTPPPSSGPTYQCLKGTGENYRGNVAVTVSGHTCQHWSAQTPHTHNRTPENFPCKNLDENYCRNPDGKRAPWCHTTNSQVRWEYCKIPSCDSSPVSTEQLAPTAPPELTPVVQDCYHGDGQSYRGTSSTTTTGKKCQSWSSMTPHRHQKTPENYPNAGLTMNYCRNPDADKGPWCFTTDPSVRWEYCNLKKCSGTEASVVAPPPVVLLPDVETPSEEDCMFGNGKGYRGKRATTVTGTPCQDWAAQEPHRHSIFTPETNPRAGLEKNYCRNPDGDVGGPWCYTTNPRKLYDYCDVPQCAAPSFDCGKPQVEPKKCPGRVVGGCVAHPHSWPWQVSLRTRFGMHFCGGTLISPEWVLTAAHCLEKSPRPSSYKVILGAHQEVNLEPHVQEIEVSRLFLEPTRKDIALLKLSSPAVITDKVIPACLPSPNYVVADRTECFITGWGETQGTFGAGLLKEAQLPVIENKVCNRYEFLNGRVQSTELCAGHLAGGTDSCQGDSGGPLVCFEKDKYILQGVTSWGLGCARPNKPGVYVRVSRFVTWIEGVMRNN
Chain of cluster 1 type streptokinase (P10520 27-440): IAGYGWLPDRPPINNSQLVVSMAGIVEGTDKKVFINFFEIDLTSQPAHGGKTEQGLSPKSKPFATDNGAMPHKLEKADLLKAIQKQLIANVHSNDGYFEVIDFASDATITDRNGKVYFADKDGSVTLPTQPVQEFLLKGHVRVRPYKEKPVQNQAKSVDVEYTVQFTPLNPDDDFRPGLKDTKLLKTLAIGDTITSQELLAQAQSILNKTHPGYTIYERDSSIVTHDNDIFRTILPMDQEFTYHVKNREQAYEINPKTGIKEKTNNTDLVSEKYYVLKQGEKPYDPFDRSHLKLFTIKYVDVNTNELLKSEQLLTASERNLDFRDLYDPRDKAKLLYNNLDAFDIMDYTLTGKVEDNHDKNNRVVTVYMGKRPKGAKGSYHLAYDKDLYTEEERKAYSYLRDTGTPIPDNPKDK
Procedure: as §1, with “An overnight culture of the strain A328 (cluster 1 type) or A614 (cluster 2a type) was diluted 1:10 in pre-warmed THY medium and grown to an OD600 of around 0.5 at 37 °C. […] The pellet was resuspended in Tris-HCl buffer (50 mM Tris pH 7.5). Then” for “Then”, “added. Stocks of TXA and EACA were prepared in PBS.” for “added.”, “run” for “incubated”, “°C. The absorption was” for “°C and”

[5] = read-out: inhibition of plasminogen activation

Q: Which IC50 [1] does the source give for `NCCCCCC(=O)O` [EACA, ε-amino caproic acid, reference compound] here?
A: 100 mM

Q: What about the IC50 [2] of the same compound?
A: > 100 mM

Q: And the IC50 [3]?
A: > 100 mM

Q: And the IC50 [4]?
A: > 100 mM

Q: Which results are given for `NC[C@H]1CC[C@H](C(=O)O)CC1` [TXA, tranexamic acid, reference compound]?
A: IC50 [2]: 100 mM; IC50 [3]: > 100 mM; IC50 [4]: > 100 mM

Q: What does the source list for `CCCCC/C=C\C/C=C\C/C=C\C/C=C\CCCC(=O)O` [arachidonic acid, reference compound]?
A: effect on plasminogen activation [1]: no effect; effect on plasminogen activation [4]: no effect

Q: `CC/C=C\C/C=C\C/C=C\CCCCCCCC(=O)O` [linolenic acid, reference compound] was tested. Which “effect on plasminogen activation” value [1] did it give?
A: no effect

Q: What about the inhibition at 359 µM [3, 5] of the same compound?
A: 30%

Q: Which results are given for `CCCCCCCCCCCCCC(=O)O` [myristic acid, reference compound]?
A: effect on plasminogen activation [1]: no effect; effect on plasminogen activation [4]: no effect

Q: Which results are given for `CCCCCCCC/C=C\CCCCCCCC(=O)O` [oleic acid]?
A: effect on plasminogen activation [1]: no effect; effect on plasminogen activation ([2]; concentrations up to 100 µg/ml (around 320–437 µM)): not active; inhibition at 354 µM [3, 5]: ~45%

Q: With `CCCCCCCCCCCCCCCC(=O)O` [palmitic acid] as the compound, how does the “effect on plasminogen activation” value [1] read?
A: unspecific marginal inhibitory effects

Q: For `CCCCCCCCCCCCCCCCCC(=O)O` [stearic acid], which “effect on plasminogen activation” value [1] is on record?
A: unspecific marginal inhibitory effects
